Test results published in patent US9815794B2, “Inhibition of bacterial biofilms and microbial growth with imidazole derivatives” (North Carolina State University, priority 2011, dated 2017).
In brackets after ≈: the same amount, converted by molar mass.

Assays:
E. coli [1] = assay: Broth microdilution MIC; format: cell-based; details: Escherichia coli
Description: (§1) Once it was determined that this specific 4,5-disubstitution pattern imparted microbicidal activity onto the 2-AI framework, this activity was quantified by measuring the MIC of each derivative against a variety of representative pathogenic bacterial strains using the microdilution protocol (CSLI, Performance Standards for Antimicrobial Suceptibility Testing; Nineteenth Informational Supplement, Clinical and Laboratory Standards Institute, Wayne, Pa., 2009). E. coli, MDRAB, P. aeruginosa, MRSA, MSSA, S. epidermidis and VRE were used for initial evaluation. From this screen, compound 15 was determined to be the lead compound and had MIC values (μg/mL) of 2, 2, 1, 0.5, 0.25, and 1 against E. coli, MDRAB, MRSA, VRE, S. Epidermidis and MSSA.
(§2) S. aureus (ATCC #29213), S. epidermidis (ATCC #29886), MRSA (ATCC # BAA-44), MDRAB (ATCC # BAA-1605), vancomycin resistant Enterococcus faecium (VRE) (ATCC #51559) and E. coli (ATCC #35695) were obtained from the ATCC. Mechanically difibrinated sheep blood (DSB100) was obtained from Hemostat Labs. Mueller-Hinton medium was purchased from Fluka (#70192).
(§3) Broth Microdilution Method for MIC Determination.

MDRAB [2] = assay: Broth microdilution MIC; format: cell-based
Description: as §1, §2, §3

S. epidermidis [3] = assay: Broth microdilution MIC; format: cell-based; details: Staphylococcus epidermidis, read-out: MIC
Description: as §1, §2, §3

VRE [4] = assay: Broth microdilution MIC; format: cell-based, vancomycin resistant Enterococcus faecium; details: Enterococcus
Description: as §1, §2, §3

Vibrio cholerae = assay: Marine bacteria microdilution MIC; format: cell-based; details: V. cholerae
MRSA = assay: Dispersion of pre-formed biofilms; format: cell-based, methicillin-resistant S. aureus; details: Staphylococcus aureus, read-out: EC50, 50% dispersion of a pre-formed biofilm
Description: (§4) The ability of 15 and 19 to disperse pre-formed biofilms was also determined for all of the aforementioned bacterial strains (both marine and terrestrial). To quantify this effect, the EC50 value of each compound against each bacterial strain was determined, where EC50 is defined as the concentration of compound that elicits 50% dispersion of a pre-formed biofilm. Both compounds are able to disperse pre-formed biofilms at low micromolar concentrations. These concentrations are also microbicidal to planktonic bacteria. […]
(§5) Preformed Biofilms: Dispersion assays were performed by taking an overnight culture of bacterial strain and subculturing it at an OD600 of 0.01 into the necessary medium (brain heart infusion for E. faecium, tryptic soy broth with a 0.5% glucose supplement (TSBG) for MRSA, S. aureus and S. epidermidis, Luria-Bertani (LB) medium for MDRAB and E. coli, and tryptic soy broth with a 0.5% glucose supplement and a 3.0% NaCl supplement (TGN) for R. salexigens, V. cholerae, V. vulnificus and L. anguillarum.) The resulting bacterial suspension was aliquoted (100 μL) into the wells of a 96-well PVC microtiter plate. […] Biofilm dispersion was quantitated by measuring the OD540 of each well in which a negative control lane wherein no biofilm was formed served as a background and was subtracted out.

E. coli [5] = assay: Dispersion of pre-formed biofilms; format: cell-based; details: Escherichia coli, read-out: EC50, 50% dispersion of a pre-formed biofilm
Description: (§6) The ability of 15 and 19 to disperse pre-formed biofilms was also determined for all of the aforementioned bacterial strains (both marine and terrestrial). To quantify this effect, the EC50 value of each compound against each bacterial strain was determined, where EC50 is defined as the concentration of compound that elicits 50% dispersion of a pre-formed biofilm. Both compounds are able to disperse pre-formed biofilms at low micromolar concentrations. These concentrations are also microbicidal to planktonic bacteria.
(§7) Procedure to Determine the Dispersal Effect of Test Compounds on E. faecium (VRE), MRSA, S. aureus, S. epidermidis, E. coli, R. salexigens, V. cholerae, V. vulnificus and L. anguillarum
(§8) Preformed Biofilms: Dispersion assays were performed by taking an overnight culture of bacterial strain and subculturing it at an OD600 of 0.01 into the necessary medium (brain heart infusion for E. faecium, tryptic soy broth with a 0.5% glucose supplement (TSBG) for MRSA, S. aureus and S. epidermidis, Luria-Bertani (LB) medium for MDRAB and E. coli, and tryptic soy broth with a 0.5% glucose supplement and a 3.0% NaCl supplement (TGN) for R. salexigens, V. cholerae, V. vulnificus and L. anguillarum.) The resulting bacterial suspension was aliquoted (100 μL) into the wells of a 96-well PVC microtiter plate. Plates were then wrapped in GLAD Press n' Seal® followed by an incubation under stationary conditions at 37° C. to establish the biofilms. After 24 h, the medium was discarded from the wells and the plates were washed thoroughly with water. Stock solutions of predetermined concentrations of the test compound were then made in the necessary medium. These stock solutions were aliquoted (100 μL) into the wells of the 96-well PVC microtiter plate with the established biofilms. Medium alone was added to a subset of the wells to serve as a control. Sample plates were then incubated for 24 h at 37° C. After incubation, the medium was discarded from the wells and the plates were washed thoroughly with water. Plates were then stained with 100 μL of 0.1% solution of crystal violet (CV) and then incubated at ambient temperature for 30 min. Plates were washed with water again and the remaining stain was solubilized with 200 μL of 95% ethanol. A sample of 125 μL of solubilized CV stain from each well was transferred to the corresponding wells of a polystyrene microtiter dish. Biofilm dispersion was quantitated by measuring the OD540 of each well in which a negative control lane wherein no biofilm was formed served as a background and was subtracted out.

MDRAB [6] = assay: Dispersion of pre-formed biofilms; format: cell-based; details: read-out: EC50, 50% dispersion of a pre-formed biofilm
Description: as §6, §7, §8

S. epidermidis [7] = assay: Dispersion of pre-formed biofilms; format: cell-based; details: Staphylococcus epidermidis, read-out: EC50, 50% dispersion of a pre-formed biofilm
Description: as §6, §7, §8

V. cholerae = assay: Dispersion of pre-formed biofilms; format: cell-based; details: Vibrio cholerae, read-out: EC50, 50% dispersion of a pre-formed biofilm
Description: as §6, §7, §8

V. vulnificus = assay: Dispersion of pre-formed biofilms; format: cell-based; details: Vibrio vulnificus, read-out: EC50, 50% dispersion of a pre-formed biofilm
Description: as §6, §7, §8

VRE [8] = assay: Dispersion of pre-formed biofilms; format: cell-based, E. faecium (VRE); details: Enterococcus, read-out: EC50, 50% dispersion of a pre-formed biofilm
Description: as §4, §5

L. anguillarum = assay: Dispersion of pre-formed biofilms; format: cell-based, Listonella anguillarum; details: Vibrio anguillarum, read-out: EC50, 50% dispersion of a pre-formed biofilm
Description: as §4, §5

R. salexigens = assay: Dispersion of pre-formed biofilms; format: cell-based, Rhodospirillum salexigens; details: Rhodothalassium salexigens, read-out: EC50, 50% dispersion of a pre-formed biofilm
Description: as §4, §5

Listonella anguillarum = assay: Marine bacteria microdilution MIC; details: L. anguillarum
[9] = tested on: Rhodospirillum salexigens; assay: Marine bacteria microdilution MIC; details: R. salexigens

SMILES | MIC (E. coli [1]) | MIC (MDRAB [2]) | MIC (S. epidermidis [3]) | MIC (VRE [4]) | MIC (Vibrio cholerae) | MIC (Vibrio cholerae; Vibrio cholerae) | EC50 (MRSA) | EC50 (E. coli [5]) | EC50 (MDRAB [6]) | EC50 (S. epidermidis [7]) | EC50 (V. cholerae) | EC50 (V. vulnificus) | EC50 (VRE [8]) | EC50 (L. anguillarum) | EC50 (R. salexigens) | MIC (Listonella anguillarum) | MIC (Listonella anguillarum; Vibrio anguillarum) | MIC [9] | MIC ([9]; Rhodothalassium salexigens)
CCCCCc1[nH]c(N)nc1CCCCCc1ccccc1 [Compound 15, 5-pentyl-4-(5-phenylpentyl)-1H-imidazol-2-amine] | 2 mg/L (≈ 6.68 µM) | 2 mg/L (≈ 6.68 µM) | 0.25 mg/L (≈ 0.835 µM) | 0.5 mg/L (≈ 1.67 µM) | 4.20 mg/L (≈ 14 µM) | 4.2 mg/L (≈ 14 µM) | 33.9 ± 3.9 µM | 12 ± 1.6 µM | 7.1 ± 1.3 µM | 24.7 ± 5.8 µM | 7.12 ± 0.3 µM | 18.1 ± 2.3 µM | 17.3 ± 2.3 µM | 14.7 ± 1.7 µM | 6.6 ± 1.1 µM | 2.10 mg/L (≈ 7.01 µM) | 2.1 mg/L (≈ 7.01 µM) | 2.10 mg/L (≈ 7.01 µM) | 2.1 mg/L (≈ 7.01 µM)
CCCCCCc1[nH]c(N)nc1CCCCCc1ccccc1 [Compound 19, 5-hexyl-4-(5-phenylpentyl)-1H-imidazol-2-amine] | 2 mg/L (≈ 6.38 µM) | 4 mg/L (≈ 12.8 µM) | 0.5 mg/L (≈ 1.59 µM) | 0.5 mg/L (≈ 1.59 µM) | 2.19 mg/L (≈ 6.99 µM) | 2.2 mg/L (≈ 7.02 µM) | 74.9 ± 9.8 µM | 42.5 ± 6.1 µM | 11.1 ± 0.1 µM | 17.7 ± 0.3 µM | 14.7 ± 1.8 µM | 3.2 ± 1.3 µM | 14.1 ± 0.2 µM | 13.8 ± 1.5 µM | 17.6 ± 3.2 µM |  | 2.2 mg/L (≈ 7.02 µM) | 1.09 mg/L (≈ 3.48 µM) | 1.1 mg/L (≈ 3.51 µM)
